Key:
Assay in all cases: Minimal inhibitory concentration (M.I.C.), agar dilution method
Details in all cases: TSA, inoculum 10^7 /ml
S. aureus 1840 = assay type: cell-based, Staphylococcus aureus
Excerpt: (§1) (a) Determination of minimal inhibitory concentrations (Tables 1 to 8):
(§2) Procedure: agar dilution method

S. aureus 209P = assay type: cell-based, Staphylococcus aureus
Excerpt: as §1, §2

E. coli NIHJ JC-2 = assay type: cell-based, Escherichia coli
Excerpt: as §1, §2

E. coli T-7 = assay type: cell-based, Escherichia coli
Excerpt: as §1, §2

E. coli 0-111 = assay type: cell-based, Escherichia coli
Excerpt: The minimal inhibitory concentrations (M.I.C.) of some representative cephalosporin derivatives of this invention as produced by the procedures described in those examples and the minimal inhibitory concentrations of cephalothin [sodium 7-(2-thienylacetamido)-3-acetoxymethyl-3-cephem-4-carboxylate], cephaloridine [7-(2-thienylacetamido)-3-(1-pyridyl)methyl-3-cephem-4-carboxylic acid betaine] and cefazolin [sodium 7-(1H-tetrazol-1-yl)acetamido-3-(2-methyl-1,3,4-thiadiazol-5-yl)thiomethyl-3-cephem-4-carboxylate], which are among the clinically established and commercially available cephalosporins (as described, for example, in the New England Journal of Medicine 294, 24, 1976 and Journal of Pharmaceutical Science 64, 1899, 1975), both against various bacteria, as well as the therapeutic effects of some respresentative cephalosporin derivatives of this invention and of cephaloridine in infected mice, are shown in tables.
as §1, §2

K. pneumoniae DT = assay type: cell-based, Klebsiella pneumoniae
Excerpt: as §1, §2

K. pneumoniae GN 3835 = assay type: cell-based, Klebsiella pneumoniae
Excerpt: as §1, §2

S. marcescens IFO 12648 = assay type: cell-based, Serratia marcescens
Excerpt: as §1, §2

S. marcescens TN 24 = assay type: cell-based, Serratia marcescens
Excerpt: as §1, §2

P. vulgaris GN 4413 = assay type: cell-based, Proteus vulgaris
Excerpt: as §1, §2

P. vulgaris IFO 3988 = assay type: cell-based, Proteus vulgaris
Excerpt: as §1, §2

P. mirabilis GN 4359 = assay type: cell-based, Proteus mirabilis
Excerpt: as §1, §2

P. morganii IFO 3168 = assay type: cell-based, Proteus morganii
Excerpt: as §1, §2

P. rettgeri GN4733 = assay type: cell-based, Proteus rettgeri
Excerpt: as §1, §2

P. rettgeri TN 338 = assay type: cell-based, Proteus rettgeri
Excerpt: as §1, §2

E. cloacae TN 1282 = assay type: cell-based, Enterobacter cloacae
Excerpt: as §1, §2

C. freundii GN 1706 = assay type: cell-based, Citrobacter freundii
Excerpt: as §1, §2

C. freundii GN 99 = assay type: cell-based, Citrobacter freundii
Excerpt: as §1, §2

Structure (SMILES) | minimal inhibitory concentration (M.I.C.) (S. aureus 1840) | minimal inhibitory concentration (M.I.C.) (S. aureus 209P) | minimal inhibitory concentration (M.I.C.) (E. coli NIHJ JC-2) | minimal inhibitory concentration (M.I.C.) (E. coli T-7) | minimal inhibitory concentration (M.I.C.) (E. coli 0-111) | minimal inhibitory concentration (M.I.C.) (K. pneumoniae DT) | minimal inhibitory concentration (M.I.C.) (K. pneumoniae GN 3835) | minimal inhibitory concentration (M.I.C.) (S. marcescens IFO 12648) | minimal inhibitory concentration (M.I.C.) (S. marcescens TN 24) | minimal inhibitory concentration (M.I.C.) (P. vulgaris GN 4413) | minimal inhibitory concentration (M.I.C.) (P. vulgaris IFO 3988) | minimal inhibitory concentration (M.I.C.) (P. mirabilis GN 4359) | minimal inhibitory concentration (M.I.C.) (P. morganii IFO 3168) | minimal inhibitory concentration (M.I.C.) (P. rettgeri GN4733) | minimal inhibitory concentration (M.I.C.) (P. rettgeri TN 338) | minimal inhibitory concentration (M.I.C.) (E. cloacae TN 1282) | minimal inhibitory concentration (M.I.C.) (C. freundii GN 1706) | minimal inhibitory concentration (M.I.C.) (C. freundii GN 99)
CCCNC(=O)O/N=C(\C(=O)NC1C(=O)N2C(C(=O)O)=C(COC(N)=O)CSC12)c1csc(=N)[nH]1 (stereo not drawn) [Example II - 13] | 3.13 | 1.56 | 0.2 | 1.56 | 0.05 | 0.05 | 0.2 | 6.25 | 25 | 50 | 0.39 | 0.1 | 3.13 | 0.1 | ≤ 0.012 | 6.25 | 0.78 | 0.1
CC(=O)OCC1=C(C(=O)O)N2C(=O)C(NC(=O)/C(=N\OC(=O)NC3CCCCC3)c3csc(=N)[nH]3)C2SC1 (stereo not drawn) [Example II - 24] | 1.56 | 0.78 | 0.1 | 1.56 | 0.024 | 0.05 | 0.39 | 6.25 | 12.5 | 25 | 0.1 | 0.1 | 0.39 | 0.05 | ≤ 0.012 | 3.13 | 0.78 | 0.39
CCCCNC(=O)O/N=C(\C(=O)NC1C(=O)N2C(C(=O)O)=C(C)CSC12)c1csc(=N)[nH]1 (stereo not drawn) [Example II - 23] | 12.5 | 12.5 | 12.5 | 25 | 6.25 | 3.13 | 6.25 | 100 | > 100 | 50 | 12.5 | 3.13 | 100 | 0.39 | 0.1 | 100 | 25 | 12.5
CC(C)NC(=O)O/N=C(\C(=O)NC1C(=O)N2C(C(=O)O)=C(COC(N)=O)CSC12)c1csc(=N)[nH]1 (stereo not drawn) [Example II - 17] | 3.13 | 1.56 | 0.39 | 3.13 | 0.05 | 0.1 | 0.39 | 6.25 | 25 | 100 | 0.39 | 0.1 | 1.56 | 0.1 | ≤ 0.012 | 6.25 | 0.78 | 0.39
CNC(=O)O/N=C(\C(=O)NC1C(=O)N2C(C(=O)O)=C(CSc3nc(C)ns3)CSC12)c1csc(=N)[nH]1 (stereo not drawn) [Example IV - 8] | 1.56 | 0.78 | 1.56 | 6.25 | 0.39 | 0.39 | 3.13 | 6.25 | 6.25 | 6.25 | 0.39 | 0.78 | 3.13 | 0.78 | ≤ 0.2 | 6.25 | 3.13 | 0.78
CCNC(=O)O/N=C(\C(=O)NC1C(=O)N2C(C(=O)O)=C(C)CSC12)c1csc(=N)[nH]1 (stereo not drawn) [Example II - 11] | 25 | 25 | 6.25 | 12.5 | 1.56 | 1.56 | 3.13 | 100 | 100 | 50 | 3.13 | 1.56 | 25 | 0.39 | 0.05 | 25 | 12.5 | 6.25
CNC(=O)O/N=C(\C(=O)NC1C(=O)N2C(C(=O)O)=C(COC(C)=O)CSC12)c1csc(=N)[nH]1 (stereo not drawn) [Example II - 1, sodium 7-[2-(2-imino-4-thiazolin-4-yl)-2-methylcarbamoyloximinoacetamido]-3-acetoxymethyl-3-cephem-4-carboxylate (syn-isomer)] | 3.13 | 1.56 | 0.1 | 0.39 | ≤ 0.012 | 0.05 | 0.1 | 3.13 | 6.25 | 12.5 | 0.05 | 0.1 | 0.39 | 0.05 | ≤ 0.012 | 1.56 | 0.39 | 0.1
CC(=O)OCC1=C(C(=O)[O-])N2C(=O)C(NC(=O)Cc3cccs3)[C@H]2SC1.[Na+] (stereo partly drawn) [Cephalothin, sodium 7-(2-thienylacetamido)-3-acetoxymethyl-3-cephem-4-carboxylate, reference compound] | 0.39 | 0.20 | 12.5 | 100 | 3.13 | 1.56 | 12.5 | > 100 | > 100 | > 100 | 1.56 | 3.13 | > 100 | > 100 | 1.56 | > 100 | > 100 | 25
